Patent US20260199273A1, “Compounds for the Treatment of Neuromuscular Disorders” (NMD PHARMA A/S, priority 2022, published 2026)

Experiments:
CIC-1 ion channel = molecular target: T1, CIC-1 ion channel (Rattus norvegicus, UniProt P35524); assay: Electrophysiological measurement of compound inhibition of CIC-1 in rat muscle (Gm in soleus fibres, three micro-electrodes); format: cell-based; settings: Gm in individual fibres of whole rat soleus muscles, approx. 30° C., four increasing compound concentrations; read-out: Potency Range (EC50, inhibition of CIC-1 ion channel)
T1 construct: from tissue; host or cells: whole soleus muscle of 12-14 week old Wistar rats
T1 sequence (P35524 1-994): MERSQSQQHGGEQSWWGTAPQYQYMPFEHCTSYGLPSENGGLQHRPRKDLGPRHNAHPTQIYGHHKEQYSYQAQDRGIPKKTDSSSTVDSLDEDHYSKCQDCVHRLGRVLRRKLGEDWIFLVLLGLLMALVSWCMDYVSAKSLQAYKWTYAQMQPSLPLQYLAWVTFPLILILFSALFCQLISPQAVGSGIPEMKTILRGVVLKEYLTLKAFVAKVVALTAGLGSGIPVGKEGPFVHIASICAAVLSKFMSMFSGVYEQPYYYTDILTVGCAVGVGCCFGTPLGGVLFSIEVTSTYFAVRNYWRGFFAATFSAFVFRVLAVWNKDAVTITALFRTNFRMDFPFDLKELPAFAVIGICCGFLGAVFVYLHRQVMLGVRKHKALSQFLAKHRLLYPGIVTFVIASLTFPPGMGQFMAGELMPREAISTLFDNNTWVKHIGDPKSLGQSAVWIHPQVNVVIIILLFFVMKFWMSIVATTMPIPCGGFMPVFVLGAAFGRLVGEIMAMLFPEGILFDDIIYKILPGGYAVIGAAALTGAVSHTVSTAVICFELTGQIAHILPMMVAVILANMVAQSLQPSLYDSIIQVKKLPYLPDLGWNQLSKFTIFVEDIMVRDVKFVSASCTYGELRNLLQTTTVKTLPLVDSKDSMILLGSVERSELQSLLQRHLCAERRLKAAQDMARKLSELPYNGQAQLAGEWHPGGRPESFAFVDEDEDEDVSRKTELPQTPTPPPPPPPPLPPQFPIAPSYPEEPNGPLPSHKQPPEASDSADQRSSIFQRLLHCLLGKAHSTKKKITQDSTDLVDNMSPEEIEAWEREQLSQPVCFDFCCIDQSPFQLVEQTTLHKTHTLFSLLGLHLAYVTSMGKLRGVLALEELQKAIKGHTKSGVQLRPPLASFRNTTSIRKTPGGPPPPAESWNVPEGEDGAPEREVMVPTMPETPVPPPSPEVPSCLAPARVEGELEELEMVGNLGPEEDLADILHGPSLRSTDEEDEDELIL
Experimental: Apparent CIC-1 affinity was reported by the concentration of compound at which 50% of the compound's full inhibition of CIC-1 was observed (EC50) (see also WO2019/115777).
Experimentally, Gm was measured in individual fibres of whole rat soleus muscles using a three micro-electrodes technique described in this example and in full detail elsewhere (Riisager et al., Determination of cable parameters in skeletal muscle fibres during repetitive firing of action potentials. Journal of Physiology, 2014, 592, 4417-4429). Briefly, intact rat soleus muscles were dissected out from 12-14 week old Wistar rats and placed in an experimental chamber that was perfused with a standard Krebs Ringer solution containing 122 mM NaCl, 25 mM NaHCO3, 2.8 mM KCl, 1.2 mM KH2PO4, 1.2 mM MgSO4, 1.3 mM CaCl2, 5.0 mM D-glucose. During experiments, the solution was kept at approx. 30° C. and continuously equilibrated with a mixture of 95% O2 and 5% CO2, pH ~7.4. The experimental chamber was placed in Nikon upright microscope that was used to visualize individual muscle fibres and the three electrodes (glass pipettes filled with 2 M potassium citrate). For Gm measurements, the electrodes were inserted into the same fibre with known inter-electrode distances of 0.35-0.5 mm (V1-V2, X1) and 1.1-1.5 mm (V1-V3, X3). The membrane potential of the impaled muscle fibre was recorded by all electrodes. Two of the electrodes were furthermore used to inject 50 ms current pulses of −30 nA. […] The steady state voltage deflection at each distance was divided by the magnitude of current injected (−30 nA) and the resulting transfer resistances were plotted against inter-electrode distance and the data was fitted to a mono-exponential function from which Gm could be calculated using linear cable theory.
To establish a dose response relationship, Gm was first determined in 10 muscle fibres in the absence of compound and then at four increasing compound concentrations with Gm determinations in 5-10 fibres at each concentration. The average Gm values at each concentration were plotted against compound concentration and the data was fitted to sigmoidal function to obtain an EC5o value.

[1] = tested on: isolated rat soleus nerve-muscle preparations; assay: Measurement of force in an in vitro model: recovery of nerve-stimulated contractile force after tubocurarine; settings: 40 min, after 40 mins of compound exposure, tubocurarine (115 nM) for 90 minutes, read-out: Point increase (%): percentage increase of initial force that was restored; for activation at 10 µM: 10 μM of test compound; for activation at 50 µM: 50 μM of test compound
Experimental: In one aspect, the invention relates to a method for recovery of force in muscles with neuromuscular dysfunction, said method comprising administering a compound or a composition as defined herein to a subject in need thereof. The term “recovery of force in muscles with neuromuscular dysfunction” as used herein refers to the ability of a compound to recover contractile force in nerve-stimulated healthy rat muscle after exposure to submaximal concentration (115 nM) of tubocurarine for 90 minutes.
Recovery of force is quantified as the percentage of the force prior to tubocurarine that is recovered after addition of the compound. In one embodiment, said recovery of force is >5%, such as >10%, such as >15%, such as >20%, such as >25%, such as >30%, such as >35%.
The current disclosure relates to compounds that inhibit CIC-1 ion channels and increase muscle excitability and thereby improve muscle function in clinical conditions where muscle activation is failing. Such conditions result in loss of contractile function of skeletal muscle, weakness and excessive fatigue. In this series of experiments the compounds were tested for their ability to restore contractile function of isolated rat muscle when the neuromuscular transmission had been compromised akin to neuromuscular disorders.
Experimentally, soleus muscles from 4-5 week old rats were isolated with the motor nerve remaining attached. The nerve-muscle preparations were mounted in experimental setups that enabled electrical stimulation of the motor nerve. Stimulation of the motor nerve led to activation of the muscle fibres and ensuing force production that was recorded. The nerve-muscle preparations were also in these experiments incubated in the standard Krebs Ringer (see example 15) and the solution was heated to 30° C. and continuously equilibrated with a mixture of 95% O2 and 5% CO2, pH ~7.4.
After mounting the nerve-muscle preparation in the experimental setup, the contractile function of the muscle was initially assessed under the control conditions. Sub-maximal concentration of tubocurarine (115 nM), an acetylcholine receptor antagonist, was then added to the experimental bath to impose partial inhibition of the ability of the motor nerve to activate the muscle fibres. The experimental condition mimics the failing neuromuscular transmission in a range of neuromuscular disorders. After addition of tubocurarine the contractile force declined over the next 90 minutes to 10-50% of the control force. The test compound was then added to obtain the required compound concentration in the bath and the contractile force recovered was measured. To quantify the ability of the compound to restore force the percentage of the initial force that was restored was determined after 40 mins of compound exposure and the point increase is reported in Tables 3 to 7.

Row | Compound | EC50 (CIC-1 ion channel) | activation at 10 µM [1] | activation at 50 µM [1]
1 | COc1c(Cl)cc2c(c1C(=O)O)SCCC2 [Compound A-31, 6-chloro-7-methoxy-3,4-dihydro-2H-1-benzothiopyran-8-carboxylic acid] | 0.2 to 2 µM | 48% | 
2 | CSc1c(Cl)cc2c(c1C(=O)O)CCCC2 [Compound A-32, 3-Chloro-2-(methylsulfanyl)-5,6,7,8-tetrahydronaphthalene-1-carboxylic acid] | 0.2 to 2 µM | 24% | 
3 | Cc1c(Cl)cc2c(c1C(=O)O)CCCCC2 [Compound A-33, 3-Chloro-2-methyl-6,7,8,9-tetrahydro-5H-benzo[7]annulene-1-carboxylic acid] | 2 to 10 µM | 17% | 
4 | C=Cc1c(Cl)cc2c(c1C(=O)O)CCCC2 [Compound A-35, 3-Chloro-2-ethenyl-5,6,7,8-tetrahydronaphthalene-1-carboxylic acid] | 0.2 to 2 µM | 16% | 
5 | O=C(O)c1c(Cl)c(F)cc2c1OCCC2 [Compound A-37, 7-Chloro-6-fluoro-3,4-dihydro-2H-1-benzopyran-8-carboxylic acid] | 2 to 10 µM |  | 48%
6 | O=C(O)c1c(F)c(Cl)cc2c1CCCO2 [Compound A-39, 7-Chloro-6-fluoro-3,4-dihydro-2H-1-benzopyran-5-carboxylic acid] | 0.2 to 2 µM | 59% | 
7 | O=C(O)c1c(F)c(F)cc2c1SCCC2 [Compound A-42, 6,7-difluoro-3,4-dihydro-2H-1-benzothiopyran-8-carboxylic acid] | 10 to 20 µM |  | 47%
8 | O=C(O)c1c(F)c(F)cc2c1CCCC2 [Compound A-44, 2,3-Difluoro-5,6,7,8-tetrahydronaphthalene-1-carboxylic acid] | 2 to 10 µM |  | 59%
9 | COc1c(C)cc2c(c1C(=O)O)CCC2 [Compound A-47, 5-Methoxy-6-methyl-2,3-dihydro-1H-indene-4-carboxylic acid] | 2 to 10 µM |  | 37%
10 | Cc1cc2c(c(C(=O)O)c1F)SCCC2 [Compound A-48, 7-fluoro-6-methyl-3,4-dihydro-2H-1-benzothiopyran-8-carboxylic acid] | 2 to 10 µM | 25% | 
11 | Cc1cc2c(c(C(=O)O)c1F)CCCC2 [Compound A-49, 2-Fluoro-3-methyl-5,6,7,8-tetrahydronaphthalene-1-carboxylic acid] | 0.2 to 2 µM | 40% | 
12 | CCc1cc2c(c(C(=O)O)c1F)CCCC2 [Compound A-51, 3-Ethyl-2-fluoro-5,6,7,8-tetrahydronaphthalene-1-carboxylic acid] | 2 to 10 µM | 29% | 
13 | Cc1c(F)cc2c(c1C(=O)O)CCCC2 [Compound A-52, 3-Fluoro-2-methyl-5,6,7,8-tetrahydronaphthalene-1-carboxylic acid] | 2 to 10 µM | 18% | 
14 | O=C(O)c1c(F)c(C2CC2)cc2c1CCCC2 [Compound A-54, 3-Cyclopropyl-2-fluoro-5,6,7,8-tetrahydronaphthalene-1-carboxylic acid] | 10 to 20 µM |  | 47%
15 | O=C(O)c1c(Cl)c(F)cc2c1OCCCC2 [Compound A-56, 8-chloro-7-fluoro-2,3,4,5-tetrahydro-1-benzoxepine-9-carboxylic acid] | 2 to 10 µM | 31% | 
16 | COc1c(Cl)cc2c(c1C(=O)O)C(F)(F)CCC2 [Compound A-59, 3-chloro-8,8-difluoro-2-methoxy-5,6,7,8-tetrahydronaphthalene-1-carboxylic acid] | 2 to 10 µM | 53% | 

Second part, led by results:

Row | EC50 (CIC-1 ion channel) | Compound | activation at 10 µM [1] | activation at 50 µM [1]
17 | 2 to 10 µM | O=C(O)c1c(F)c(Cl)cc2c1OCCC2 [Compound A-36, 6-Chloro-7-fluoro-3,4-dihydro-2H-1-benzopyran-8-carboxylic acid] | 43% | 
18 | 0.2 to 2 µM | O=C(O)c1c(F)c(Cl)cc2c1SCCC2 [Compound A-38, 6-Chloro-7-fluoro-3,4-dihydro-2H-1-benzothiopyran-8-carboxylic acid] | 48% | 
19 | 0.2 to 2 µM | CN1CCCc2cc(Cl)c(F)c(C(=O)O)c21 [Compound A-40, 6-Chloro-7-fluoro-1-methyl-1,2,3,4-tetrahydroquinoline-8-carboxylic acid] | 39% | 
20 | 2 to 10 µM | O=C(O)c1c(F)c(Cl)cc2c1NCCC2 [Compound A-41, 6-Chloro-7-fluoro-1,2,3,4-tetrahydroquinoline-8-carboxylic acid] | 49% | 
21 | 2 to 10 µM | Cc1cc2c(c(C(=O)O)c1F)OCCC2 [Compound A-50, 7-fluoro-6-methyl-3,4-dihydro-2H-1-benzopyran-8-carboxylic acid] |  | 51%
22 | 0.2 to 2 µM | CC1(C)CCc2cc(Cl)cc(C(=O)O)c2O1 [Compound A-53, 6-Chloro-2,2-dimethyl-3,4-dihydro-2H-1-benzopyran-8-carboxylic acid] | 43% | 
23 | 0.2 to 2 µM | CC1(C)CCc2cc(Cl)c(F)c(C(=O)O)c2O1 [Compound A-61, 6-Chloro-7-fluoro-2,2-dimethyl-3,4-dihydro-2H-1-benzopyran-8-carboxylic acid] | 63% | 
24 | 2 to 10 µM | O=C(O)c1c(F)c(Cl)cc2c1CCC2 [Compound A-63, 6-Chloro-5-fluoro-2,3-dihydro-1H-indene-4-carboxylic acid] | 28% | 
